Measured values taken from patent US9802937B2, “Substituted pyrazolo{4,3-D}pyrimidines as kinase inhibitors” (ORIGENIS GMBH, priority 2011, dated 2017).

What was measured:
LRRK2 = LRRK2 (Homo sapiens, UniProt Q5S007); assay: LRRK2-LRRK2 G2019S-Assay (LanthaScreen Eu Kinase Binding Assay); conditions: 5 nM LRRK2 or their mutants, 10 nM tracer 236, RT 1 h; read-out: LRRK2 Activities: IC50
Protocol: In the assay LanthaScreen™ Eu Kinase Binding Assay by Invitrogen Corporation (Carlsbad) the effect of invention of a compound on the phosphorylation is determined by measurement of fluorescence intensity emission ratio based on the binding and displacement of a proprietary, Alexa Fluor® 647-labeled, ATP-competitive kinase inhibitor scaffold (kinase tracer) to the kinase of interest. Binding of the tracer to the kinase is detected using a europium-labeled anti-tag antibody, which binds to the kinase of interest. Simultaneous binding of both the tracer and antibody to the kinase results in a high degree of FRET (fluorescence resonance energy transfer) from the europium (Eu) donor fluorophore to the Alexa Fluor® 647 acceptor fluorophore on the kinase tracer. Binding of an inhibitor to the kinase competes for binding with the tracer, resulting in a loss of FRET. The fluorescence intensity ratio is directly proportional to the amount of peptide phosphorylation.
To the wells of an 384 well small volume plate (Greiner, Frickenhausen) are added (i) the compound under test in 5% DMSO/distilled water (5 μl), (ii) 5 μl of the kinase antibody mixture resulting in a final concentration 5 nM LRRK2 or their mutants, 2 nM EU-Anti-GST antibody in 1× kinase buffer A. The reaction was started with addition of (iii) 5 μl resulting in a final concentration of 10 nM tracer 236. The assay plate was incubated at RT for 1 h and fluorescence intensitiy readings were collected using a TECAN M1000 at two wavelengthes of λex 340/λem 615 nm and λex 340/λm 665 nm with a delay time of 100 μs and an integration time of 200 μs after 60 minutes. The emission ratio was calculated by division of the acceptor/tracer emission ([…]) by the antibody/donor emission ([…]). The inhibitor concentration was plotted versus the emission ratio to determine the IC50 using XLFit 5.0 (IDBS, Guildford) to fit to a sigmoidal dose response curve with a variable slope.

SYK kinase = molecular target: T1, SYK kinase (Homo sapiens, UniProt P43405); assay: SYK Assay (OMNIA KINASE ASSAY, SOX peptide fluorescence); assay type: biochemical; conditions: apparent Ki calculated from the IC50 using the Cheng-Prusoff equation; 1 mM ATP, 30° C.; read-out: SYK Activities: Ki
T1 construct: purchased Invitrogen, Carlsbad
Procedure, shortened: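 Apparent Ki values are derived by Cheng-Prusoff from IC50s of sigmoidal fits of reaction rate against compound concentration. Rates come from chelation-enhanced SOX fluorescence (λex 360/λem 485 nm, read every 30 s over 30 min) as the kinase phosphorylates 10 µM Omnia Tyr 7 peptide at 30 °C, with 1 mM ATP and 0.2 mM DTT.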

Sequence of LRRK2 (Q5S007 970-2527 limits assumed): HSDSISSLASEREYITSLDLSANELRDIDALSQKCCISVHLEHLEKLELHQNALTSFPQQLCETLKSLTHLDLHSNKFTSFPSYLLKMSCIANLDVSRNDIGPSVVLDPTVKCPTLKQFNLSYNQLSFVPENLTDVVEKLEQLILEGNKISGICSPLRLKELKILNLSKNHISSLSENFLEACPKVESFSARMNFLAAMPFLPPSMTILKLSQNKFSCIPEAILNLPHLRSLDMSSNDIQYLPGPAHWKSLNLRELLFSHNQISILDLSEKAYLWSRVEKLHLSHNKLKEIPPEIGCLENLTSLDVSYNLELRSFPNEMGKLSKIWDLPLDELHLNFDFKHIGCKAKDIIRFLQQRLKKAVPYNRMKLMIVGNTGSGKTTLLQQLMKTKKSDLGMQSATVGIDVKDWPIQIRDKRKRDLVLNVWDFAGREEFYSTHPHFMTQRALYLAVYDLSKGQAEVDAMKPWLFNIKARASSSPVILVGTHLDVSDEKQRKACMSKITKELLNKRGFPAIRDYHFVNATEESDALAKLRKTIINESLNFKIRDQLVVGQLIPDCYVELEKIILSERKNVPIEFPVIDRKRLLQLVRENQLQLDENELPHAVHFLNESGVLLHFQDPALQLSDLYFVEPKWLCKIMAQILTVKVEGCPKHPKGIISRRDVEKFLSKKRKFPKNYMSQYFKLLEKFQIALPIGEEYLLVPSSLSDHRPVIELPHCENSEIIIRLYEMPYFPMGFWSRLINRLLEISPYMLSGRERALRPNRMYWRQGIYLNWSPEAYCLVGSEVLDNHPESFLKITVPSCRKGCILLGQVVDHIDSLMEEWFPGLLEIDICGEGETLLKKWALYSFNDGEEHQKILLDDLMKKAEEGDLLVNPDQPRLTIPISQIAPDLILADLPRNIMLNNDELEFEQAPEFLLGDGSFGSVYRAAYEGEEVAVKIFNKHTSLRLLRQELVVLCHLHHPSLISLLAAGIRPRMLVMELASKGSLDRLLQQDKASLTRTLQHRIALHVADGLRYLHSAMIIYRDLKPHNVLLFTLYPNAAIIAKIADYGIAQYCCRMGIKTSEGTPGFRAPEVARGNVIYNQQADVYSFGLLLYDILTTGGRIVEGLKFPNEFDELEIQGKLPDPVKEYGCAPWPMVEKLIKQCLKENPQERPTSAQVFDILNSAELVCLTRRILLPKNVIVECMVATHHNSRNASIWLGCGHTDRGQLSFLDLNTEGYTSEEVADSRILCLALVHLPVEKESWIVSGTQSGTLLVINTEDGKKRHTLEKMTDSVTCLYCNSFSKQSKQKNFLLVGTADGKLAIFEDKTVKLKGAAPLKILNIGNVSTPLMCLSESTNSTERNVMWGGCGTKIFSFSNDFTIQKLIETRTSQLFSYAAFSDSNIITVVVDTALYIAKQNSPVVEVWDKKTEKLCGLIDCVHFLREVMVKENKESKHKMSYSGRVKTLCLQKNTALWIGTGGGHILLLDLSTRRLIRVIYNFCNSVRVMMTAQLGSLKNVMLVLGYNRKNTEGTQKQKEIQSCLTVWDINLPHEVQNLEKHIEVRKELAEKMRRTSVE

| IC50 (LRRK2) | Ki (SYK kinase) | SMILES |
| --- | --- | --- |
| < 10 nM | < 10 nM | c1csc(-c2nc(Nc3ccc4cn[nH]c4c3)c3[nH]ncc3n2)c1 [Example #82, N-(1H-indazol-6-yl)-5-(thiophen-2-yl)-1H-pyrazolo[4,3-d]pyrimidin-7-amine] |
| 100 to 1000 nM | 10 to 100 nM | COc1ccc(Nc2nc(-c3cccc(-c4cccnc4)c3)nc3cn[nH]c23)cc1OC [Example #101, N-(3,4-dimethoxyphenyl)-5-(3-(pyridin-3-yl)phenyl)-1H-pyrazolo[4,3-d]pyrimidin-7-amine] |
| 100 to 1000 nM | 10 to 100 nM | COc1cccc(-c2nc(Nc3cccc(O)c3)c3[nH]ncc3n2)c1 [Example #81, 3-((5-(3-methoxyphenyl)-1H-pyrazolo[4,3-d]pyrimidin-7-yl)amino)phenol] |
| 100 to 1000 nM | < 10 nM | CC(=O)N1CCN(c2ccc(Nc3nc(-c4cscn4)nc4cn[nH]c34)cc2)CC1 [Example #198, 1-(4-(4-((5-(thiazol-4-yl)-1H-pyrazolo[4,3-d]pyrimidin-7-yl)amino)phenyl)piperazin-1-yl)ethan-1-one] |
| 100 to 1000 nM | < 10 nM | c1ccc(-c2nc(Nc3ccc4[nH]ncc4c3)c3[nH]ncc3n2)cc1 [Example #1, N-(1H-indazol-5-yl)-5-phenyl-1H-pyrazolo[4,3-d]pyrimidin-7-amine] |
| 10 to 100 nM | < 10 nM | c1cc(-c2nc(Nc3ccc(N4CCOCC4)cc3)c3[nH]ncc3n2)cs1 [Example #73, N-(4-morpholinophenyl)-5-(thiophen-3-yl)-1H-pyrazolo[4,3-d]pyrimidin-7-amine] |
| 100 to 1000 nM | < 10 nM | CS(=O)(=O)c1cccc(-c2nc(Nc3ccc(N4CCOCC4)cc3)c3[nH]ncc3n2)c1 [Example #251, 5-(3-(methylsulfonyl)phenyl)-N-(4-morpholinophenyl)-1H-pyrazolo[4,3-d]pyrimidin-7-amine] |
| 100 to 1000 nM | 10 to 100 nM | COc1ccc(Nc2nc(-c3ccccc3OC)nc3cn[nH]c23)cc1OC [Example #109, N-(3,4-dimethoxyphenyl)-5-(2-methoxyphenyl)-1H-pyrazolo[4,3-d]pyrimidin-7-amine] |
| 100 to 1000 nM | 10 to 100 nM | O=C(O)c1cccc(-c2nc(Nc3ccc(N4CCOCC4)cc3)c3[nH]ncc3n2)c1 [Example #156, 3-(7-((4-morpholinophenyl)amino)-1H-pyrazolo[4,3-d]pyrimidin-5-yl)benzoic acid] |
| 100 to 1000 nM | < 10 nM | O=C1COc2ccc(Nc3nc(-c4cccs4)nc4cn[nH]c34)cc2N1 [Example #162, 6-((5-(thiophen-2-yl)-1H-pyrazolo[4,3-d]pyrimidin-7-yl)amino)-2H-benzo[b][1,4]oxazin-3(4H)-one] |
| 100 to 1000 nM | < 10 nM | c1cc(N2CCOCC2)ccc1Nc1nc(-c2ccc(N3CCCC3)nc2)nc2cn[nH]c12 [Example #33, N-(4-morpholinophenyl)-5-(6-(pyrrolidin-1-yl)pyridin-3-yl)-1H-pyrazolo[4,3-d]pyrimidin-7-amine] |
| < 10 nM | < 10 nM | O=C1CCc2ccc(Nc3nc(-c4ccc5cn[nH]c5c4)nc4cn[nH]c34)cc2N1 [Example #269, 7-((5-(1H-indazol-6-yl)-1H-pyrazolo[4,3-d]pyrimidin-7-yl)amino)-3,4-dihydroquinolin-2(1H)-one] |
| 100 to 1000 nM | 10 to 100 nM | COc1ccc(-c2nc(Nc3ccc4c(c3)NC(=O)CC4)c3[nH]ncc3n2)cc1 [Example #159, 7-((5-(4-methoxyphenyl)-1H-pyrazolo[4,3-d]pyrimidin-7-yl)amino)-3,4-dihydroquinolin-2(1H)-one] |
| 100 to 1000 nM | < 10 nM | c1csc(-c2nc(Nc3ccc4c(c3)COC4)c3[nH]ncc3n2)c1 [Example #304, N-(1,3-dihydroisobenzofuran-5-yl)-5-(thiophen-2-yl)-1H-pyrazolo[4,3-d]pyrimidin-7-amine] |
| 10 to 100 nM | < 10 nM | O=C1CCc2ccc(Nc3nc(-c4cccc(C(=O)O)c4)nc4cn[nH]c34)cc2N1 [Example #195, 3-(7-((2-oxo-1,2,3,4-tetrahydroquinolin-7-yl)amino)-1H-pyrazolo[4,3-d]pyrimidin-5-yl)benzoic acid] |
| 100 to 1000 nM | 100 to 1000 nM | COc1cccc(-c2nc(Nc3cc(C4CC4)[nH]n3)c3[nH]ncc3n2)c1 [Example #88, N-(5-cyclopropyl-1H-pyrazol-3-yl)-5-(3-methoxyphenyl)-1H-pyrazolo[4,3-d]pyrimidin-7-amine] |

| IC50 (LRRK2) | Ki (SYK kinase) | SMILES |
| --- | --- | --- |
| 10 to 100 nM | < 10 nM | c1ccc(-c2nc(Nc3ccc4c(c3)NCCO4)c3[nH]ncc3n2)cc1 [Example #64, N-(5-phenyl-1H-pyrazolo[4,3-d]pyrimidin-7-yl)-3,4-dihydro-2H-benzo[b][1,4]oxazin-6-amine] |
| 100 to 1000 nM | 10 to 100 nM | COc1ccc(Nc2nc(-c3nc4ccccc4s3)nc3cn[nH]c23)cc1OC [Example #96, 5-(benzo[d]thiazol-2-yl)-N-(3,4-dimethoxyphenyl)-1H-pyrazolo[4,3-d]pyrimidin-7-amine] |
| 100 to 1000 nM | < 10 nM | c1cc(-c2nc(Nc3ccc4cn[nH]c4c3)c3[nH]ncc3n2)ccn1 [Example #16, N-(1H-indazol-6-yl)-5-(pyridin-4-yl)-1H-pyrazolo[4,3-d]pyrimidin-7-amine] |
| 100 to 1000 nM | 10 to 100 nM | COc1ccc(Nc2nc(-c3ccncc3)nc3cn[nH]c23)cc1OC [Example #18, N-(3,4-dimethoxyphenyl)-5-(pyridin-4-yl)-1H-pyrazolo[4,3-d]pyrimidin-7-amine] |
| 100 to 1000 nM | – | COc1ccc(-c2nc(Nc3cc[nH]n3)c3[nH]ncc3n2)cc1OC [Example #41, 5-(3,4-dimethoxyphenyl)-N-(1H-pyrazol-3-yl)-1H-pyrazolo[4,3-d]pyrimidin-7-amine] |
| 100 to 1000 nM | – | O=S(=O)(NC1CC1)c1cccc(Nc2nc(-c3cccs3)nc3cn[nH]c23)c1 [Example #261, N-cyclopropyl-3-((5-(thiophen-2-yl)-1H-pyrazolo[4,3-d]pyrimidin-7-yl)amino)benzenesulfonamide] |
| – | 100 to 1000 nM | COc1ccc(Nc2nc(-c3cc(F)cc(F)c3)nc3cn[nH]c23)cc1OC [Example #274, 5-(3,5-difluorophenyl)-N-(3,4-dimethoxyphenyl)-1H-pyrazolo[4,3-d]pyrimidin-7-amine] |
| – | 10 to 100 nM | CS(=O)(=O)c1cccc(Nc2nc(-c3cccc(S(C)(=O)=O)c3)nc3cn[nH]c23)c1 [Example #253, N,5-bis(3-(methylsulfonyl)phenyl)-1H-pyrazolo[4,3-d]pyrimidin-7-amine] |
| – | 100 to 1000 nM | COC(=O)c1cccc(-c2nc(Nc3ccc4cn[nH]c4c3)c3[nH]ncc3n2)c1 [Example #307, methyl 3-(7-((1H-indazol-6-yl)amino)-1H-pyrazolo[4,3-d]pyrimidin-5-yl)benzoate] |
| – | 100 to 1000 nM | CN1CCN(c2ccc(Nc3nc(-c4cccc(OCC(=O)O)c4)nc4cn[nH]c34)cc2)CC1 [Example #174, 2-(3-(7-((4-(4-methylpiperazin-1-yl)phenyl)amino)-1H-pyrazolo[4,3-d]pyrimidin-5-yl)phenoxy)acetic acid] |
| – | 10 to 100 nM | N[C@@H]1CCCC[C@@H]1Nc1nc(-c2ccsc2)nc2cn[nH]c12 [Example #116, (1S,2R)—N-(5-Thiophen-3-yl-1H-pyrazolo[4,3-d]pyrimidin-7-yl)-cyclohexane-1,2-diamine] |
| – | 100 to 1000 nM | CN(C)Cc1cccc(Nc2nc(-c3ccccc3F)nc3cn[nH]c23)c1 [Example #312, N-(3-((dimethylamino)methyl)phenyl)-5-(2-fluorophenyl)-1H-pyrazolo[4,3-d]pyrimidin-7-amine] |
| – | 100 to 1000 nM | c1cc(-c2nc(Nc3ccc4[nH]ncc4c3)c3[nH]ncc3n2)ccn1 [Example #13, N-(1H-indazol-5-yl)-5-(pyridin-4-yl)-1H-pyrazolo[4,3-d]pyrimidin-7-amine] |
| – | 10 to 100 nM | O=C1COc2ccc(Nc3nc(-c4cccc(C(=O)O)c4)nc4cn[nH]c34)cc2N1 [Example #212, 3-(7-((3-oxo-3,4-dihydro-2H-benzo[b][1,4]oxazin-6-yl)amino)-1H-pyrazolo[4,3-d]pyrimidin-5-yl)benzoic acid] |
| – | 100 to 1000 nM | N[C@@H]1CCCC[C@H]1Nc1nc(-c2ccsc2)nc2cn[nH]c12 [Example #115, (1R,2R)—N-(5-Thiophen-3-yl-1H-pyrazolo[4,3-d]pyrimidin-7-yl)-cyclohexane-1,2-diamine] |
| – | < 10 nM | CN1CCN(c2ccc(Nc3nc(-c4cccc(-c5nn[nH]n5)c4)nc4cn[nH]c34)cc2)CC1 [Example #149, 5-(3-(2H-tetrazol-5-yl)phenyl)-N-(4-(4-methylpiperazin-1-yl)phenyl)-1H-pyrazolo[4,3-d]pyrimidin-7-amine] |
